Experimental data reported in patent US10286039B2, “Compositions and methods for treating neutropenia” (Children's Hospital Los Angeles, priority 2014, dated 2019).

Assays:
CD34+ cells = assay: Western blot and gene transcription in CD34+ cells; format: cell-based
Description: A novel gene transcription pattern is induced by Am80, in contrast to All-trans retinoic acid (ATRA or RA).

S. aureus [1] = assay: Neutrophil bactericidal activity, neutropenic mice at neutrophil-decrease stage, medium dose; format: in vivo, C57BL/6J mice; conditions: for neutrophil induction by bacterial infection: neutrophil-decrease stage, Vetscan analysis of PB
Protocol: FIG. 6A experimental design. C57BL/6J mice (n=19) were randomly divided into five groups (3 for control and 4 for each of experimental groups). Mouse neutropenia was induced by IP injection of CPA on day 0. After 4 hrs of CPA injection, different regimens were given to mice once a day, with Am80 by oral or GCSF by SC or vehicle by oral. Mice were challenged by 6.3×10^6 CFU of S. aureus on day 2 via tail vein injection. After 3 hrs infection, each 100 μl blood was collected from tails for analysis of initial bactericidal activity of neutrophils. The mice were sacrificed 16 hrs post-infection, by which PB and heart were harvested. (FIG. 6B) Vetscan analysis of WBC and neutrophils in PB. Except blank mice, neutrophil induction was not observed in all other groups (FIG. 6C-E). Bactericidal activities of neutrophils were determined 3 hr (FIG. 6C) and 16 hrs post-infection (FIG. 6D) in PB as well as in heart (panel E), by using blood agar analysis of viable extracellular bacteria. […] A+G: Am80-GCSF.

S. aureus [2] = assay: Neutrophil bactericidal activity, neutropenic mice at neutrophil-decrease stage, lower dose; format: in vivo, C57BL/6J mice; conditions: for neutrophil induction by bacterial infection: neutrophil-decrease stage, Vetscan analysis of PB
Protocol: Mice (C57BL6/J) were randomly divided into five groups (3 control and 4 for each experimental group, n=19 mice). C57BL/6J mice (n=19) were randomly divided into five groups (3 for control and 4 for each of experimental groups). The procedures for induction of mouse neutropenia and treatment are the same to the medium dose test (see slide 6). Mice were challenged with 6.3×10^6 CFU of S. aureus on day 2 via tail vein injection. After 3 hrs infection, each 100 μl blood was collected from tails for determining initial bactericidal activities of neutrophils. The mice were sacrificed on day 3, by which PB and spleen were harvested. (FIG. 7A). Vetscan analysis of WBC and neutrophils in PB was performed (FIG. 7B). Except blank mice, neutrophil induction was not observed in all other groups (FIG. 7C-E). Bactericidal activities of neutrophils were determined 3 hr (panel C) and 16 hrs post-infection (panel D) in PB as well as in spleen (panel E), using blood agar analysis of viable extracellular bacteria.

S. Aureus [3] = assay: Neutrophil bactericidal activity and production, neutropenic mice at neutrophil-recovery stage, lower dose; format: in vivo, Mice (C57BL6/J)
Protocol: Mice (C57BL6/J) were randomly divided into five groups (3 control and 4 for each experimental group, n=19 mice). As illustrated (FIG. 8a), mice were given regimens 2 days post-CPA injection (200 mg/kg). After consecutive 3 days of treatment, mice were challenged with S. Aureus for up to 16 hrs before euthanasia. We found a significant increase of peripheral blood (PB) neutrophils in all groups after bacterial infection (FIG. 8b). PB collected at 3 and 16 hrs-post infection was used for analyzing of neutrophil bactericidal activities. […] However, with low doses of Am80-GCSF treatment, Am80 can effectively differentiate GCSF-regenerated granulocytic precursors into mature neutrophils against microbial infection. P<0.05; **: P<0.01; ***: P<0.005.

neutropenic mice = assay: Neutrophil recovery in CPA-induced neutropenic mice at neutrophil-decrease stage; format: in vivo, C57BL6/J mice
Protocol: To evaluate Am80 effect in vivo, we first tested half maximal effective concentration (EC50) of different human equivalent high, medium, and low doses of Am80 and GCSF (FIG. 5a) on regenerating mature neutrophils in neutropenic mice. Normal C57BL6/J mice were injected with a single dose of cyclophosphamide (CPA) to reduce mouse neutrophils. At 4 hr post-injection of CPA, mice were treated with vehicle, Am80, GCSF, or Am80-GCSF for consecutive 3 days before mice were sacrificed (FIG. 5b). […] Data represent 2 independent experiments with similar results.

AML BM primary blasts = assay: Proliferation of primary blasts from acute myeloid leukemia patients; format: cell-based, human
Protocol: Proliferation of PB primary blasts from acute myeloid leukemia patients was assayed (FIG. 13A) and quantified P<0.05 (FIG. 13B). Granulocytic morphology of AML PB primary blasts was analyzed (FIG. 13C) and quantified; Am80 vs. G-CSF, P<4.0E-8; Am80 vs. control, P<6.02E-7 (FIG. 13D).
Proliferation of BM primary blasts from acute myeloid leukemia patients was assayed (FIG. 13E) and quantified at day 8, Am80 vs. G-CSF, P<0.008; G-CSF vs. control, P<0.032 (FIG. 13F). Granulocytic morphology of AML BM primary blasts was analyzed (FIG. 13G) and quantified; Am80 vs. G-CSF, P<9.9E-4; Am80 vs. RA, P<1.0E-4 (FIG. 13H).

NB4 cells = assay: Proliferation, granulocytic differentiation and ROS production in NB4 cells; format: cell-based; conditions: day 6, in the presence of either fMLP or PMA
S. Aureus [4] = assay: Survival of neutropenic mice enduring continual bacteremia; format: in vivo; conditions: treatment 24 hrs post-CPA
Protocol: If Am80 can indeed differentiate GCSF-regenerated great amount of granulocytic precursors into mature neutrophils against infection, Am80-GCSF combination should effectively reduce infection-related mortality in cancer chemotherapy induced neutropenia. We tested this hypothesis by using neutropenic mice experiencing bacteremia through entire neutropenia period. As illustrated (FIG. 9A), mice were given different regimens 4 hrs post-CPA injection for up to day 8. S. Aureus infection was performed on day 3, and survival rate was calculated on day 9. […] To evaluate bactericidal ability of regenerated neutrophils in survived mice, the survived blank and Am80-GCSF mice on day 11 were further infected with S. Aureus for 15 min before euthanasia. A parallel analysis of freshly isolated PB with both Giemsa and Gram stains determined neutrophil phagocytosis in infected mice vs. free of bacteremia in non-infected mice (FIG. 9E). Since GCSF is usually provided to CCIN ≥24 hrs post-chemo drug, we further tested low and medium doses of Am80-GCSF treatment 24 hrs post-CPA, as illustrated (FIG. 9F, 9J), with two independent experiments for each of doses.

**Q.** With `CC1(C)CCC(C)(C)c2cc(NC(=O)c3ccc(C(=O)O)cc3)ccc21` [Am80, tamibarotene] as the molecule, how does the “C/EBPε, CD18, and granule LL-37 mRNA levels” value (CD34+ cells) read?
**A.** significant up-regulation

**Q.** And the “p21Cip/Kip mRNA levels” value (CD34+ cells)?
**A.** decrease

**Q.** And the MAT1 fragmentation (CD34+ cells; Western blot)?
**A.** progressive induction

**Q.** And the “retinoic acid receptor (RARα) hypophosphorylation” value (CD34+ cells; Western blot)?
**A.** progressive induction

**Q.** And the neutrophil bactericidal activity (S. aureus [1]; 3 hr and 16 hrs post-infection in PB and heart, viable extracellular bacteria)?
**A.** significantly increased neutrophil bactericidal activity

**Q.** And the “neutrophil induction by bacterial infection” value (“neutrophil induction” for short) (S. aureus [1])?
**A.** not instigated

**Q.** What about the neutrophil bactericidal activity (S. aureus [2]; 3 hr and 16 hrs post-infection in PB and spleen, viable extracellular bacteria) of the same molecule?
**A.** greater bactericidal activity than those induced by G-CSF or Am80+GCSF

**Q.** What about the “neutrophil induction” value (S. aureus [2]) of the same molecule?
**A.** not instigated

**Q.** And the “neutrophil production in BM and PB” value (S. Aureus [3])?
**A.** induced least number of neutrophils in both BM and PB

**Q.** What about the “sustaining neutrophil levels (PB)” value (neutropenic mice; low and medium doses, 3 days treatment from 4 hr post-CPA, compared to all other treatments) of the same molecule?
**A.** better EC50 effect on sustaining neutrophil levels

**Q.** And the “granulocytic morphology differentiation (PB)” value (neutropenic mice; low doses vs medium doses)?
**A.** enhanced granulocytic morphology differentiation better than did medium doses

B1: GCSF: granulocyte colony-stimulating factor (protein, UniProt P09919 31-207, looked up)
Granulocyte …: TPLGPASSLPQSFLLKCLEQVRKIQGDGAALQEKLVSECATYKLCHPEELVLLGHSLGIPWAPLSSCPSQALQLAGCLSQLHSGLFLYQGLLQALEGISPELGPTLDTLQLDVADFATTIWQQMEELGMAPALQPTQGAMPAFASAFQRRAGGVLVASHLQSFLEVSYRVLRHLAQP
**Q.** How did the “neutrophil induction” value (S. aureus [1]) turn out when B1 was run?
**A.** not instigated

**Q.** What about the “growth rate of AML BM primary blasts” value (AML BM primary blasts; G-CSF vs. control, P<0.018) of the same molecule?
**A.** Higher growth rate

**Q.** What about the “growth of non-APL AML patient blasts” value (AML BM primary blasts; compared to those treated with Am80 or ATRA) of the same molecule?
**A.** promotes the growth

**Q.** What about the ROS production (NB4 cells) of the same molecule?
**A.** fails to induce ROS production

**Q.** And the “neutrophil induction” value (S. aureus [2])?
**A.** not instigated

**Q.** And the “neutrophil production in BM and PB” value (S. Aureus [3])?
**A.** induced significantly more neutrophils in BM while similar amount in PB compared to Am80-GCSF

**Q.** What about the “neutrophil bactericidal activity (killing assays)” value (S. Aureus [3]; PB at 3 and 16 hrs post-infection) of the same molecule?
**A.** significantly low bactericidal activity compared to those induced by Am80-GCSF

**Q.** What about the survival rate (S. Aureus [4]; low-dose test, S. Aureus infection) of the same molecule?
**A.** 12.5%

**Q.** What about the survival rate (S. Aureus [4]; medium-dose test, no statistical difference between groups) of the same molecule?
**A.** 11.1%

**Q.** What about the “differentiation of 3rd layer BM cells, granulocytic morphologic analysis” value (neutropenic mice; medium dose GCSF vs low doses of Am80-GCSF) of the same molecule?
**A.** less differentiated than those induced by low doses of Am80-GCSF

**Q.** And the “recovery of 3rd layer BM cells” value (neutropenic mice; medium dose, Percoll separation of bone marrow cells)?
**A.** induced highest recovery
